Counter-ions that a name gives are not always drawn.
Legend:
mice = settings: cited from earlier work
UCMS = tested on: UCMS; set-up: method as in PMID 28732760; settings: cited from earlier work
ICR mice = tested on: ICR mice; set-up: method as in PMID 31394019; settings: oral, 5 mg/kg for 7 days, vs vehicle-administered control group; cited from earlier work
UCMS mice [1] = test: Sucrose preference test (anhedonia) in UCMS mice; type: in vivo, ICR mice; settings: IMP 20 mg/kg i.p. daily, 5th week, vs vehicle-treated UCMS group
Method: (§1) UCMS procedures were used to induce the depressive-like behaviors in mice as previously described by Mizuki et al., with minor modification. Briefly, in week 0, the animals were first trained to consume a 2% sucrose solution for a 48-h period in their home cages with no food or water. After this training, the animals were deprived of water and food for 18 h, and then sucrose solution was given for 1 h per day for 5 consecutive days in order to group the mice and determine the baseline sucrose consumption. The animals were randomly divided into 5 groups: a non-stressed control group and 4 other groups subjected to UCMS for 5 weeks. The UCMS procedures consisted of a variety of unpredictable mild stressors, including two periods of cage tilting at 45° (12 h), two periods of restricted access to food (5 micropellets, 1 h), two periods of exposure to an empty bottle (3 h), one 21 h-period of a wet cage (200 mL of water in 100 g of sawdust bedding), two periods of light exposure (36 h), two periods of intermittent sound (a cat singing sound) (3 and 5 h), two periods of paired caging (2 h), and food and water deprivation for 18 h before the measurement of 2% sucrose solution consumption. […]
The sucrose preference test was used to assess the anhedonic-like behavior. […] The amounts of 2% (w/v) sucrose solution were recorded. […]

UCMS mice [2] = test: Tail suspension test (TST) in UCMS mice; type: in vivo, ICR mice; settings: LE 100 and 500 mg/kg p.o. (dose-dependent), IMP 20 mg/kg i.p., vs vehicle-treated UCMS group
Method: (§2) UCMS procedures were used to induce the depressive-like behaviors in mice as previously described by Mizuki et al., with minor modification. Briefly, in week 0, the animals were first trained to consume a 2% sucrose solution for a 48-h period in their home cages with no food or water. After this training, the animals were deprived of water and food for 18 h, and then sucrose solution was given for 1 h per day for 5 consecutive days in order to group the mice and determine the baseline sucrose consumption. The animals were randomly divided into 5 groups: a non-stressed control group and 4 other groups subjected to UCMS for 5 weeks. […]
Each mouse was suspended upside down in the tail suspension test box, which leads to characteristic behavior immobility. […] Immobility duration was recorded for the last 4 min, during a 6-min observation period. […]

UCMS mice [3] = test: Forced swimming test (FST) in UCMS mice; type: in vivo, ICR mice; settings: LE 100 and 500 mg/kg p.o. (dose-dependent), IMP 20 mg/kg i.p., vs vehicle-treated UCMS group
Method: as §1
Forced swimming test (FST) is one of the most commonly used animal models for assessing antidepressant-like behavior. […] The immobility time was recorded during 5 min.

UCMS mice [4] = test: Locomotor activity in the Y-maze task in UCMS mice; type: in vivo, ICR mice; settings: LE 100 and 500 mg/kg p.o., IMP 20 mg/kg i.p.
Method: as §2
In order to exclude false positive results from drug-induced hyperlocomotion in hopeless behavioral tests, locomotor activity was determined by evaluation of mice movement. […] One hour after drug administration, the mice were individually placed on one arm, and the total arm entries were recorded manually over 8 min-period for measuring the locomotion activity.

[5] = tested on: serum corticosterone (CORT); test: Serum corticosterone (CORT) ELISA in UCMS mice; type: in vivo, ICR mice; settings: imipramine 20 mg/kg/day, LE 100–500 mg/kg/day for 3 weeks, vs vehicle-treated UCMS group
Method: as §2
After completing the behavioral analysis, blood was collected via cardiac puncture under anesthesia with pentobarbital sodium as anesthetic drug (Nembutal®: 60 mg/kg i.p.; Ceva Sante Animale, Libourne, France). […] The absorbance was immediately determined at 450 nm.

SGK1 mRNA = test: QPCR of SGK1 mRNA in frontal cortex and hippocampus of UCMS mice; type: in vivo, ICR mice; settings: LE 100 and 500 mg/kg p.o. (dose-dependent), IMP 20 mg/kg i.p.
Method: as §2
(§3) Mouse serum/glucocorticoid-regulated kinase 1 (SGK1), cyclic AMP response element binding protein (CREB), brain-derived neurotrophic factor (BDNF), mRNAs expression in hippocampus and frontal cortex were quantified by real time PCR. […] Fold difference relative expressions were calculated.

CREB mRNA = test: QPCR of CREB mRNA in frontal cortex and hippocampus of UCMS mice; type: in vivo, ICR mice; settings: LE 100 and 500 mg/kg p.o., IMP 20 mg/kg i.p.
Method: as §2, §3

BDNF mRNA = test: QPCR of BDNF mRNA in frontal cortex and hippocampus of UCMS mice; type: in vivo, ICR mice; settings: LE 100 and 500 mg/kg p.o., IMP 20 mg/kg i.p.
Method: as §2, §3

recombinant human MAO-A = molecular target: T1, recombinant human MAO-A (Homo sapiens, UniProt P21397); settings: read-out: Km for the oxidation of kynuramine by MAO-A; cited from earlier work
T1 sequence (P21397 1-527): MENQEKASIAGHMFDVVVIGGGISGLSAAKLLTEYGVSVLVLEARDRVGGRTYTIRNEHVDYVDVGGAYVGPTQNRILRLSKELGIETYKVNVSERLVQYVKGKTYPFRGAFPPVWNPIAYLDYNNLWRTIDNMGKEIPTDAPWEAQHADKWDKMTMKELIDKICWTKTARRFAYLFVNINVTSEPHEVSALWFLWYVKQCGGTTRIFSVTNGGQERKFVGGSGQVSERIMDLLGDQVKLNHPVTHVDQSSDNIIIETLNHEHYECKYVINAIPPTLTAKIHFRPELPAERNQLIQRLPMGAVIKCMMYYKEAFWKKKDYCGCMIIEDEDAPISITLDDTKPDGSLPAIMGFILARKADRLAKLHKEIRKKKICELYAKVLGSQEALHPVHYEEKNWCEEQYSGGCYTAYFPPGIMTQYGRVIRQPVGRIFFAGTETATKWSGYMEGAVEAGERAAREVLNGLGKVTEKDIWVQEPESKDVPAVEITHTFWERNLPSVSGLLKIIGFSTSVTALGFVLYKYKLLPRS

recombinant human MAO-B = molecular target: T2, recombinant human MAO-B (Homo sapiens, UniProt P27338); settings: read-out: Km for the oxidation of kynuramine by MAO-B; cited from earlier work
T2 sequence (P27338 1-520): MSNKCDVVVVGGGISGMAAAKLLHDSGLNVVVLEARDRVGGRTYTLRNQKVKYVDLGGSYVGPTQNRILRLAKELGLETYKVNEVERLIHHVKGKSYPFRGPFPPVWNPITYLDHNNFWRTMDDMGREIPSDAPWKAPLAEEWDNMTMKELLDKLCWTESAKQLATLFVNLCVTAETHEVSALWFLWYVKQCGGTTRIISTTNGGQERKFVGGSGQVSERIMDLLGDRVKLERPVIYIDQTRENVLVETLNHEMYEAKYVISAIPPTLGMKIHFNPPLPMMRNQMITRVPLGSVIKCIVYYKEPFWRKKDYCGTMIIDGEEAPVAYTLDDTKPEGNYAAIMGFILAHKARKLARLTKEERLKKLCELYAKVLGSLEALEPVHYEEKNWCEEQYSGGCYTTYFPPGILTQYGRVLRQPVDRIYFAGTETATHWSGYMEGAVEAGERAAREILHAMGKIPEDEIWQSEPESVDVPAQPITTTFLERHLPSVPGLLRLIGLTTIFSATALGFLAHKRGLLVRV

Which “immobility time in FST and TST” value (mice; stress-induced mice compared with unstressed mice) does the source give for `O=c1c(O)c(-c2ccc(O)cc2)oc2cc(O)cc(O)c12` [Kaemferol] here?
Its value is “reducing the immobility time”.

Which UCMS-induced behavioral deficits (UCMS) does the source give for `C[C@@H]1O[C@@H](OC[C@H]2O[C@@H](Oc3c(-c4ccc(O)c(O)c4)oc4cc(O)cc(O)c4c3=O)[C@H](O)[C@@H](O)[C@@H]2O)[C@H](O)[C@H](O)[C@H]1O` [Rutin, quercetin-3-rutinoside] here?
Its UCMS-induced behavioral deficits is “efficiently rescued the UCMS-induced behavioral deficits”.

With `COc1cc(/C=C/C(=O)O)ccc1O` [ferulic acid] as the compound, how does the immobility (ICR mice) read?
The immobility was “significantly reduced immobility”.

Which results are given for `CN(C)CCCN1c2ccccc2CCc2ccccc21` [imipramine, imipramine hydrochloride]?
2% sucrose intake (UCMS mice [1]): significant increase; immobility time in TST (UCMS mice [2]): significantly decreased the immobility time; immobility time in FST (UCMS mice [3]): significantly decreased the immobility time; locomotor activity (number of arm entries, Y-maze) (UCMS mice [4]): neither imipramine (IMP) nor the ethanol extract of D. alatus leaf improved the locomotor activity; UCMS-induced elevation in serum CORT levels [5]: significantly suppressed; mRNA expression of SGK1 (SGK1 mRNA): markedly decreased; expression of CREB mRNA (CREB mRNA): normalized the down-regulated expression; expression of BDNF mRNA (BDNF mRNA): normalized the down-regulated expression

With `NCCC(=O)c1ccccc1N` [kynuramine] as the compound, how does the Km (recombinant human MAO-A) read?
The Km was 16.1 µM.

What about the Km (recombinant human MAO-B) of the same compound?
The Km was 22.7 µM.

With `O=c1cc(-c2ccc(O)c(O)c2)oc2cc(O)cc(O)c12` [luteolin] as the compound, how does the “effect in FST and TST” value (mice; oral administration, 50 mg/kg) read?
Its value is “antidepressant effects”.
